± gives the expanded uncertainty stated by the source.
Test: relative permittivity at zero frequency (dimensionless)
Details: Parallel plate capacitor

COC [dimethyl ether]
Details | relative permittivity at zero frequency
343.2 K, 33200 kPa, Liquid | 4.84 ± 0.03
353.1 K, 40 kPa, Gas | 1.01 ± 0.02
353.1 K, 100 kPa, Gas | 1.012 ± 0.02
353.1 K, 220 kPa, Gas | 1.017 ± 0.02
353.1 K, 480 kPa, Gas | 1.03 ± 0.02
353.1 K, 530 kPa, Gas | 1.033 ± 0.02
353.1 K, 580 kPa, Gas | 1.036 ± 0.02
353.1 K, 680 kPa, Gas | 1.041 ± 0.02
353.1 K, 780 kPa, Gas | 1.047 ± 0.02
353.1 K, 870 kPa, Gas | 1.052 ± 0.02
353.1 K, 970 kPa, Gas | 1.058 ± 0.02
353.1 K, 1070 kPa, Gas | 1.064 ± 0.02
353.1 K, 1180 kPa, Gas | 1.071 ± 0.02
353.1 K, 1270 kPa, Gas | 1.078 ± 0.02
353.1 K, 1340 kPa, Gas | 1.082 ± 0.02
353.1 K, 1440 kPa, Gas | 1.09 ± 0.02
353.1 K, 1540 kPa, Gas | 1.098 ± 0.02
353.1 K, 1700 kPa, Gas | 1.109 ± 0.021
353.1 K, 1890 kPa, Gas | 1.128 ± 0.021
353.1 K, 2150 kPa, Gas | 1.178 ± 0.022
353.1 K, 2200 kPa, Liquid | 3.92 ± 0.04
353.1 K, 4000 kPa, Liquid | 3.98 ± 0.04
353.1 K, 6400 kPa, Liquid | 4.07 ± 0.04
353.1 K, 8200 kPa, Liquid | 4.13 ± 0.03
353.1 K, 10200 kPa, Liquid | 4.19 ± 0.03
353.1 K, 12200 kPa, Liquid | 4.24 ± 0.03
353.1 K, 14200 kPa, Liquid | 4.29 ± 0.03
353.1 K, 16100 kPa, Liquid | 4.33 ± 0.03
353.1 K, 18200 kPa, Liquid | 4.38 ± 0.03
353.1 K, 20000 kPa, Liquid | 4.42 ± 0.03
353.1 K, 21800 kPa, Liquid | 4.45 ± 0.03
353.1 K, 24000 kPa, Liquid | 4.49 ± 0.03
353.1 K, 25800 kPa, Liquid | 4.52 ± 0.03
353.1 K, 27700 kPa, Liquid | 4.55 ± 0.03
353.1 K, 29800 kPa, Liquid | 4.58 ± 0.03
363.4 K, 850 kPa, Gas | 1.048 ± 0.02
363.4 K, 1050 kPa, Gas | 1.059 ± 0.02
363.4 K, 1200 kPa, Gas | 1.068 ± 0.02
363.4 K, 1410 kPa, Gas | 1.081 ± 0.02
363.4 K, 1580 kPa, Gas | 1.092 ± 0.02
363.4 K, 1750 kPa, Gas | 1.104 ± 0.02
363.4 K, 1890 kPa, Gas | 1.116 ± 0.02
363.4 K, 2070 kPa, Gas | 1.131 ± 0.021
363.4 K, 2280 kPa, Gas | 1.15 ± 0.021
363.4 K, 2800 kPa, Liquid | 3.63 ± 0.04
363.4 K, 4200 kPa, Liquid | 3.71 ± 0.04
363.4 K, 6200 kPa, Liquid | 3.8 ± 0.04
363.4 K, 8000 kPa, Liquid | 3.88 ± 0.04
363.4 K, 10200 kPa, Liquid | 3.95 ± 0.03
363.4 K, 12200 kPa, Liquid | 4.01 ± 0.03
363.4 K, 14200 kPa, Liquid | 4.06 ± 0.03
363.4 K, 16000 kPa, Liquid | 4.11 ± 0.03
363.4 K, 18000 kPa, Liquid | 4.16 ± 0.03
363.4 K, 20000 kPa, Liquid | 4.2 ± 0.03
363.4 K, 22000 kPa, Liquid | 4.24 ± 0.03
363.4 K, 24000 kPa, Liquid | 4.28 ± 0.03
363.4 K, 26000 kPa, Liquid | 4.31 ± 0.03
363.4 K, 28000 kPa, Liquid | 4.35 ± 0.03
363.4 K, 30500 kPa, Liquid | 4.4 ± 0.03
372.9 K, 3400 kPa, Liquid | 3.38 ± 0.05
372.9 K, 4200 kPa, Liquid | 3.44 ± 0.05
372.9 K, 6100 kPa, Liquid | 3.57 ± 0.04
372.9 K, 8300 kPa, Liquid | 3.66 ± 0.03
372.9 K, 10200 kPa, Liquid | 3.73 ± 0.03
372.9 K, 12200 kPa, Liquid | 3.81 ± 0.03
372.9 K, 14400 kPa, Liquid | 3.88 ± 0.03
372.9 K, 16200 kPa, Liquid | 3.91 ± 0.03
372.9 K, 18300 kPa, Liquid | 3.96 ± 0.03
372.9 K, 20000 kPa, Liquid | 4 ± 0.03
372.9 K, 22300 kPa, Liquid | 4.05 ± 0.03
372.9 K, 24100 kPa, Liquid | 4.09 ± 0.03
372.9 K, 26200 kPa, Liquid | 4.14 ± 0.03
372.9 K, 27800 kPa, Liquid | 4.16 ± 0.03
372.9 K, 29200 kPa, Liquid | 4.18 ± 0.03
382.9 K, 4000 kPa, Liquid | 3.08 ± 0.06
382.9 K, 6200 kPa, Liquid | 3.31 ± 0.05
382.9 K, 8100 kPa, Liquid | 3.43 ± 0.04
382.9 K, 10000 kPa, Liquid | 3.53 ± 0.03
382.9 K, 12300 kPa, Liquid | 3.62 ± 0.03
382.9 K, 14200 kPa, Liquid | 3.68 ± 0.03
382.9 K, 16100 kPa, Liquid | 3.74 ± 0.03
382.9 K, 18000 kPa, Liquid | 3.79 ± 0.03
382.9 K, 20000 kPa, Liquid | 3.84 ± 0.03
382.9 K, 22000 kPa, Liquid | 3.89 ± 0.03
382.9 K, 24000 kPa, Liquid | 3.93 ± 0.03
382.9 K, 26000 kPa, Liquid | 3.97 ± 0.03
382.9 K, 27900 kPa, Liquid | 4.01 ± 0.03
382.9 K, 30100 kPa, Liquid | 4.05 ± 0.03
393 K, 6200 kPa, Liquid | 3.01 ± 0.05
393 K, 8400 kPa, Liquid | 3.21 ± 0.05
393 K, 10000 kPa, Liquid | 3.3 ± 0.04
393 K, 12300 kPa, Liquid | 3.4 ± 0.03
393 K, 14200 kPa, Liquid | 3.47 ± 0.03
393 K, 16200 kPa, Liquid | 3.54 ± 0.02
393 K, 18200 kPa, Liquid | 3.6 ± 0.03
393 K, 20000 kPa, Liquid | 3.65 ± 0.03
393 K, 22000 kPa, Liquid | 3.7 ± 0.03
393 K, 24000 kPa, Liquid | 3.75 ± 0.03
393 K, 26000 kPa, Liquid | 3.79 ± 0.03
393 K, 27800 kPa, Liquid | 3.83 ± 0.03
393 K, 29500 kPa, Liquid | 3.86 ± 0.03
402.9 K, 6900 kPa, Fluid (supercritical or subcritical phases) | 2.75 ± 0.05
402.9 K, 8600 kPa, Fluid (supercritical or subcritical phases) | 2.96 ± 0.05
402.9 K, 10200 kPa, Fluid (supercritical or subcritical phases) | 3.08 ± 0.03
402.9 K, 12000 kPa, Fluid (supercritical or subcritical phases) | 3.19 ± 0.03
402.9 K, 14200 kPa, Fluid (supercritical or subcritical phases) | 3.28 ± 0.03
402.9 K, 16100 kPa, Fluid (supercritical or subcritical phases) | 3.35 ± 0.02
402.9 K, 18000 kPa, Fluid (supercritical or subcritical phases) | 3.4 ± 0.02
402.9 K, 20000 kPa, Fluid (supercritical or subcritical phases) | 3.47 ± 0.02
402.9 K, 21700 kPa, Fluid (supercritical or subcritical phases) | 3.51 ± 0.02
402.9 K, 23600 kPa, Fluid (supercritical or subcritical phases) | 3.55 ± 0.02
402.9 K, 25800 kPa, Fluid (supercritical or subcritical phases) | 3.61 ± 0.02
402.9 K, 27100 kPa, Fluid (supercritical or subcritical phases) | 3.64 ± 0.02
402.9 K, 29500 kPa, Fluid (supercritical or subcritical phases) | 3.68 ± 0.02

— the NIST ThermoML archive (doi:10.1021/je060283w)
